Measured values: patent US8435564B2, “Pharmaceutical compositions comprising brivaracetam” (UCB Pharma, S.A., priority 2008, dated 2013)
≈ marks a conversion by molar mass, not a printed value.

Assays:
BCS classification = format: physicochemical
Procedure: Considering Brivaracetam is classified as BCS I, the resulting in vitro dissolution (USP <711> apparatus no 2) in a buffered aqueous media has to show a drug release of no more than 40% after 1 hour of dissolution, of 35%-80% after 4 hours of dissolution and of no less than 80% after 16 hours of dissolution. Preferably, a profile of no more than 35% after 1 hour of dissolution, of 40%-75% after 4 hours of dissolution and of no less than 80% after 16 hours of dissolution. More preferably a profile of no more than 30% after 1 hour of dissolution, of 45%-70% after 4 hours of dissolution and of no less than 80% after 16 hours of dissolution.

[1] = water solubility of the active ingredient; format: physicochemical
Procedure: Brivaracetam is a very water soluble active ingredient (ca. 700 mg/ml), and it is not obvious to slow down the release of the drug.

CCC[C@@H]1CC(=O)N([C@@H](CC)C(N)=O)C1 [Brivaracetam, (2S)-2-[(4R)-2-oxo-4-propyl-pyrrolidin-1-yl]butanamide]
BCS class (BCS classification): BCS I
solubility [1]: ~700 mg/mL (≈ 3300 mM)
